Experimental data: US20160101072A1, “Therapeutic uses of enzyme inhibitors” (Proximagen Limited, priority 2013, published 2016)
Marks after values point to notes of the source that are not given here.

Experiments:
TGFβ mRNA = experiment: mRNA quantification (RT PCR) of pro-fibrotic growth factor TGFβ in muscles of mdx mice; type: in vivo, mouse
Excerpt: (§1) A total of a ninety C57BU10ScSn-Dmdmdx/J male mice, 3 weeks of age (+/-3days), were transferred to the in vivo research laboratory in Bar Harbor, Me. Additional ten […] male mice 3 weeks of age (+/-3 days) were also transferred and served as a wild-type control group. The mice were ear notched for identification and housed in ventilated polysulfone cages with HEPA filtered air at a density of 3-4 mice per cage. The animal room was lit entirely with artificial fluorescent lighting on controlled 12 hour light/dark cycle (6 a.m. to 6 p.m. light). […] The animal room was set for 15 air exchanges per hour. Filtered tap water acidified to a pH of 2.8 to 3.2 was provided ad libitum. […] Prior to study initiation, mice were acclimated for 3 days. Mice were tested for grip strength and in the open field at ages 25 and 26 days, and drug regimen was initiated at age 27 days. Mice were monitored twice weekly for clinical observations and body weights. […] 24 hours after the second open field tests, blood was collected by retro-orbital bleeding, and mice were humanely euthanized by CO2 asphyxiation. One triceps surae was collected fresh and processed for immune cell sorting, one tibialis anterior was preserved in RNALater for RNA extraction, one whole hind limb and the diaphragm were fixed in 2% paraformaldehyde overnight at 4° C. for paraffin embedding and histology stains. Total RNAs were extracted with a modification of the Trizol method, reverse transcribed, and mRNAs of TGFβ, and the following inflammation markers were quantified by the SYBR green method with GAPDH as a normalizer: […]

CD53 mRNA = experiment: mRNA quantification (RT PCR) of CD53 in muscles of mdx mice; type: in vivo, mouse
Excerpt: as §1

[1] = system: lymphoid CD4+CD8- T cells; experiment: Cell sorting: recruitment of lymphoid CD4+CD8- T cells into muscles of mdx mice; type: in vivo, mouse; settings: mdx mice muscle
Excerpt: (§2) In this example, labelled antibodies were used to assess infiltration of inflammatory myeloid and lymphoid cells into muscles of mdx mice following treatment of the mice with different doses of the glucocorticoid prednisolone, and the VAP-1 inhibitors carbidopa and benserazide. CD11b is a transmembrane glycoprotein which is expressed on the surface of granulocytes (including neutrophils and eosinophils), monocytes, NK cells, dendritic cells, tissue macrophages and subsets of T and B cells. Labelled antibody to CD11b was used to assess infiltration of inflammatory myeloid cells into muscles of mdx mice. Labelled antibody to Ly6C was used to assess infiltration of pro- and anti-inflammatory monocytes into muscles of mdx mice. Labelled antibody to CD4 and CD8a antigen was used to assess infiltration of Th cells (CD4^+CD8^-) and double negative (CD4^-CD8^-) T cells into muscles of mdx mice. A total of a ninety C57BU10ScSn-Dmdmdx/J male mice, 3 weeks of age (+/-3days), were transferred to the in vivo research laboratory in Bar Harbor, Me. Additional ten […] male mice 3 weeks of age (+/-3 days) were also transferred and served as a wild-type control group. The mice were ear notched for identification and housed in ventilated polysulfone cages with HEPA filtered air at a density of 3-4 mice per cage. The animal room was lit entirely with artificial fluorescent lighting on controlled 12 hour light/dark cycle (6 a.m. to 6 p.m. light). […] The animal room was set for 15 air exchanges per hour. Filtered tap water acidified to a pH of 2.8 to 3.2 was provided ad libitum. […] Prior to study initiation, mice were acclimated for 3 days. Mice were tested for grip strength and in the open field at ages 25 and 26 days, and drug regimen was initiated at age 27 days. Mice were monitored twice weekly for clinical observations and body weights. […] 24 hours after the second open field tests, blood was collected by retro-orbital bleeding, and mice were humanely euthanized by CO2 asphyxiation. One triceps surae was collected fresh and processed for immune cell sorting, one tibialis anterior was preserved in RNALater for RNA extraction, one whole hind limb and the diaphragm were fixed in 2% paraformaldehyde overnight at 4° C. for paraffin embedding and histology stains. For immune cell sorting, muscle samples were enzymatically and mechanically dissociated following manufacturer instructions (Skeletal Muscle Dissociation KitCatalog no. 130-098-305, Miltenyi Biotec). Cells were stained with the following antibodies: [table] Stained cells were analyzed on a BD LSR II cytometer and counts of different populations were expressed in percentage of the number of live cells counted.

Lgals3 mRNA = experiment: mRNA quantification (RT PCR) of Lgals3 in muscles of mdx mice; type: in vivo, mouse
Excerpt: as §1

IL-6 mRNA = experiment: mRNA quantification (RT PCR) of IL-6 in muscles of mdx mice; type: in vivo, mouse; settings: mdx mice muscle
Excerpt: as §1

Mpeg1 mRNA = experiment: mRNA quantification (RT PCR) of Mpeg1 in muscles of mdx mice; type: in vivo, mouse; settings: mdx mice muscle
Excerpt: as §1

[2] = system: CD11b+Ly6Clow anti-fibrotic myeloid cells (Ly6C- monocytes); experiment: Cell sorting: recruitment of CD11b+Ly6Clow anti-fibrotic myeloid cells into muscles of mdx mice; type: in vivo, mouse; settings: for % change compared to vehicle (CD11b+Ly6Clow anti-fibrotic myeloid cells) / % of viable cells (CD11b+Ly6Clow anti-fibrotic myeloid cells): 4 weeks, mdx mice muscle
Excerpt: as §2

CD11b mRNA = experiment: mRNA quantification (RT PCR) of CD11b in muscles of mdx mice; type: in vivo, mouse
Excerpt: as §1

CD48 mRNA = experiment: mRNA quantification (RT PCR) of CD48 in muscles of mdx mice; type: in vivo, mouse
Excerpt: as §1

macrophages = experiment: Staining of murine F4/80 antigen in diaphragm sections of mdx mice (macrophage infiltration); type: in vivo, mouse; settings: 20 mg/kg po once per day, 6 weeks, 12 week old mdx mice
Excerpt: (§3) The most studied animal model for DMD is the mdx mouse. This was first described by Bulfield et al (Proc. Natl. Acad. Sci. USA, 1984, 81:1189-1192). It has a point mutation within its dystrophin gene, and as a result the mouse has no functional dystrophin in its muscles. […] As it ages, certain muscle types (including the diaphragm) show weakness and increased fibrosis. […] This provides a quantitative framework for studying the pathogenesis of dystrophy (Stedman et al, Nature, 1991, 352, 536-539).
(§4) 12 week old mdx mice were treated with benserazide (20 mg/kg, po, once per day) or vehicle (water, once per day), in groups of 8 mice. After 6 weeks of treatment, diaphragms of the mice were collected and flash frozen in liquid nitrogen-cooled isopentane. The sections were stored on slides at −20° C. until required.
(§5) Hematoxylin and eosin (H & E) staining was used to show cytoplasmic, nuclear, and extracellular matrix features. Hematoxylin stains nucleic acids, and eosin stains proteins nonspecifically. Staining of F4/80 antigen (a glycoprotein expressed by murine macrophages) was used to show macrophages.

[3] = system: lymphoid CD4-CD8- (double negative, DN) T cells; experiment: Cell sorting: recruitment of lymphoid CD4-CD8- (double negative, DN) T cells into muscles of mdx mice; type: in vivo, mouse; settings: mdx mice muscle
Excerpt: as §2

TNF mRNA = experiment: mRNA quantification (RT PCR) of TNF in muscles of mdx mice; type: in vivo, mouse
Excerpt: as §1

diaphragms of mdx mice = experiment: H & E staining of diaphragm sections of mdx mice (inflammatory infiltrates); type: in vivo, mouse; settings: 20 mg/kg po once per day, 6 weeks, 12 week old mdx mice
Excerpt: as §3, §4, §5

[4] = system: CD11b+Ly6Chigh profibrotic : CD11b+Ly6Clow anti-fibrotic myeloid cells; experiment: Ratio of profibrotic to anti-fibrotic myeloid cells in mdx mouse muscle; type: in vivo; settings: both doses
Excerpt: In this example, labelled antibodies were used to assess infiltration of inflammatory myeloid and lymphoid cells into muscles of mdx mice following treatment of the mice with different doses of the glucocorticoid prednisolone, and the VAP-1 inhibitors carbidopa and benserazide. […] Labelled antibody to CD11b was used to assess infiltration of inflammatory myeloid cells into muscles of mdx mice. Labelled antibody to Ly6C was used to assess infiltration of pro- and anti-inflammatory monocytes into muscles of mdx mice. Labelled antibody to CD4 and CD8a antigen was used to assess infiltration of Th cells (CD4^+CD8^−) and double negative (CD4^−CD8^−) T cells into muscles of mdx mice.
A total of a ninety C57BU10ScSn-Dmdmdx/J male mice, 3 weeks of age (+/−3days), were transferred to the in vivo research laboratory in Bar Harbor, Me. Additional ten C57BU10ScSnJ male mice 3 weeks of age (+/−3 days) were also transferred and served as a wild-type control group. The mice were ear notched for identification and housed in ventilated polysulfone cages with HEPA filtered air at a density of 3-4 mice per cage. […]

Ly6C1 mRNA = experiment: mRNA quantification (RT PCR) of Ly6C1 in muscles of mdx mice; type: in vivo, mouse; settings: mdx mice muscle
Excerpt: as §1

[5] = system: CD11b+Ly6Chigh profibrotic myeloid cells (Ly6C+ monocytes); experiment: Cell sorting: recruitment of CD11b+Ly6Chigh profibrotic myeloid cells into muscles of mdx mice; type: in vivo, mouse; settings: mdx mice muscle; for % change compared to vehicle (CD11b+Ly6Chigh profibrotic myeloid cells) / % of viable cells (CD11b+Ly6Chigh profibrotic myeloid cells): 4 weeks
Excerpt: as §2

CD11b+ myeloid cells = experiment: Cell sorting: recruitment of CD11b+ myeloid cells into muscles of mdx mice; type: in vivo, mouse; settings: mdx mice muscle; for % change compared to vehicle (CD11b+ myeloid cells) / % of viable cells (CD11b+ myeloid cells): 4 weeks
Excerpt: as §2

eosinophils = settings: DMD / mdx dystrophic muscle, previous studies; cited from earlier work
T cells = settings: correlated with reduction in muscle necrosis and fibrosis; very early studies; cited from earlier work
[6] = 20 mg/kg po twice/day, mdx mice muscle, GAPDH as normalizer
[7] = treatment alone, mdx mouse muscle
[8] = doses as in the table (carbidopa 100, benserazide 20 mg/kg po twice/day; prednisolone 1 mg/kg ip once/day)

Compound: NC(CO)C(=O)NNCc1ccc(O)c(O)c1O (stereo not drawn) [Benserazide]
- % change compared to vehicle (TGFβ mRNA) (TGFβ mRNA; 20 mg/kg po twice/day, mdx mice muscle): −34.7%
- TGFβ mRNA (TGFβ mRNA; [6]): 0.79
- reduction of the TGFβ mRNA level (fraction in words) (TGFβ mRNA; treatment alone, muscle of mdx mice): over a third
- CD53 mRNA level (CD53 mRNA; [6]): 0.95
- effect on the level of CD53 mRNA (CD53 mRNA; [7]): not significantly affected
- % change compared to vehicle (lymphoid CD4+CD8- T cells) ([1]; 20 mg/kg po twice/day, 4 weeks): −37.0%
- % of viable cells (lymphoid CD4+CD8- T cells) ([1]; 20 mg/kg po twice/day, 4 weeks): 9.2* %
- reduction of recruitment of lymphoid CD4+CD8- T cells compared with vehicle [1, 8]: over 50%
- Lgals3 mRNA level (Lgals3 mRNA; [6]): 0.95
- effect on the level of Lgals3 mRNA (Lgals3 mRNA; [7]): no significant effect
- effect on IL-6 mRNA level (IL-6 mRNA): No effects
- effect on Mpeg1 mRNA level (Mpeg1 mRNA): No effects
- % change compared to vehicle (CD11b+Ly6Clow anti-fibrotic myeloid cells) ([2]; 7 mg/kg po twice/day): −16.5%
- % of viable cells (CD11b+Ly6Clow anti-fibrotic myeloid cells) ([2]; 7 mg/kg po twice/day): 22.7%
- % change compared to vehicle (CD11b+Ly6Clow anti-fibrotic myeloid cells) ([2]; 20 mg/kg po twice/day): −27.9%
- % of viable cells (CD11b+Ly6Clow anti-fibrotic myeloid cells) ([2]; 20 mg/kg po twice/day): 19.6* %
- inhibition of recruitment of anti-fibrotic myeloid cells compared with vehicle ([2]; higher dose of benserazide, statistically significant): 27.9%
- CD11b mRNA level (CD11b mRNA; [6]): 1.12
- effect on the level of CD11b mRNA (CD11b mRNA; [7]): not significantly affected
- CD48 mRNA level (CD48 mRNA; [6]): 0.85
- effect on the level of CD48 mRNA (CD48 mRNA; [7]): no significant effect
- reduction in macrophage infiltration compared to vehicle (F4/80 staining) (macrophages): ~50%
- % change compared to vehicle (lymphoid CD4-CD8- DN T cells) ([3]; 20 mg/kg po twice/day, 4 weeks): −44.8%
- % of viable cells (lymphoid CD4-CD8- DN T cells) ([3]; 20 mg/kg po twice/day, 4 weeks): 18** %
- reduction of recruitment of lymphoid DN T cells compared with vehicle [3, 8]: over 50%
- TNF mRNA level (TNF mRNA; [6]): 0.79
- effect on the level of TNF mRNA (TNF mRNA; [7]): No significant effect
- reduction in inflammatory infiltrates compared to vehicle (H & E staining) (diaphragms of mdx mice): ~50%
- relative levels of pro- and anti-fibrotic myeloid cells [4]: not affected
- effect on Ly6C1 mRNA level (Ly6C1 mRNA): No effects
- % change compared to vehicle (CD11b+Ly6Chigh profibrotic myeloid cells) ([5]; 7 mg/kg po twice/day): −11.5%
- % of viable cells (CD11b+Ly6Chigh profibrotic myeloid cells) ([5]; 7 mg/kg po twice/day): 6.49%
- % change compared to vehicle (CD11b+Ly6Chigh profibrotic myeloid cells) ([5]; 20 mg/kg po twice/day): −26.9%
- % of viable cells (CD11b+Ly6Chigh profibrotic myeloid cells) ([5]; 20 mg/kg po twice/day): 5.36%
- effect on recruitment of profibrotic myeloid cells compared with vehicle ([5]; both doses): little, if any, statistically significant effect
- % change compared to vehicle (CD11b+ myeloid cells) (CD11b+ myeloid cells; 7 mg/kg po twice/day): −13.7%
- % of viable cells (CD11b+ myeloid cells) (CD11b+ myeloid cells; 7 mg/kg po twice/day): 31.4%
- % change compared to vehicle (CD11b+ myeloid cells) (CD11b+ myeloid cells; 20 mg/kg po twice/day): −32.4%
- % of viable cells (CD11b+ myeloid cells) (CD11b+ myeloid cells; 20 mg/kg po twice/day): 24.6* %
- reduction of CD11b+ myeloid cell recruitment compared with vehicle (CD11b+ myeloid cells; higher dose of benserazide): approximately one-third

Compound: C[C@]12C=CC(=O)C=C1CC[C@@H]1[C@@H]2C(=O)C[C@@]2(C)[C@H]1CC[C@]2(O)C(=O)CO [Prednisone, prednisone]
- effect on eosinophil infiltration (eosinophils): reduce eosinophil infiltration
- effect on T cells in DMD patients (T cells): reduction in T cells
